Reference: paper PMC8480759, “Inhibitors of histone deacetylase 6 based on a novel 3-hydroxy-isoxazole zinc binding group” (Journal of Enzyme Inhibition and Medicinal Chemistry, 2021)

Assays:
HDAC6 = biological target: T1, HDAC6 (Homo sapiens, UniProt Q9UBN7); experiment: In vitro HDAC6 fluorogenic enzymatic assay; type: biochemical; parameters: purchased BPS Bioscience #50076 (Fluorogenic Assay Kit); conditions: recombinant human HDAC6; dose-response 300 µM to 135 nM
T1 sequence (Q9UBN7 1-1215): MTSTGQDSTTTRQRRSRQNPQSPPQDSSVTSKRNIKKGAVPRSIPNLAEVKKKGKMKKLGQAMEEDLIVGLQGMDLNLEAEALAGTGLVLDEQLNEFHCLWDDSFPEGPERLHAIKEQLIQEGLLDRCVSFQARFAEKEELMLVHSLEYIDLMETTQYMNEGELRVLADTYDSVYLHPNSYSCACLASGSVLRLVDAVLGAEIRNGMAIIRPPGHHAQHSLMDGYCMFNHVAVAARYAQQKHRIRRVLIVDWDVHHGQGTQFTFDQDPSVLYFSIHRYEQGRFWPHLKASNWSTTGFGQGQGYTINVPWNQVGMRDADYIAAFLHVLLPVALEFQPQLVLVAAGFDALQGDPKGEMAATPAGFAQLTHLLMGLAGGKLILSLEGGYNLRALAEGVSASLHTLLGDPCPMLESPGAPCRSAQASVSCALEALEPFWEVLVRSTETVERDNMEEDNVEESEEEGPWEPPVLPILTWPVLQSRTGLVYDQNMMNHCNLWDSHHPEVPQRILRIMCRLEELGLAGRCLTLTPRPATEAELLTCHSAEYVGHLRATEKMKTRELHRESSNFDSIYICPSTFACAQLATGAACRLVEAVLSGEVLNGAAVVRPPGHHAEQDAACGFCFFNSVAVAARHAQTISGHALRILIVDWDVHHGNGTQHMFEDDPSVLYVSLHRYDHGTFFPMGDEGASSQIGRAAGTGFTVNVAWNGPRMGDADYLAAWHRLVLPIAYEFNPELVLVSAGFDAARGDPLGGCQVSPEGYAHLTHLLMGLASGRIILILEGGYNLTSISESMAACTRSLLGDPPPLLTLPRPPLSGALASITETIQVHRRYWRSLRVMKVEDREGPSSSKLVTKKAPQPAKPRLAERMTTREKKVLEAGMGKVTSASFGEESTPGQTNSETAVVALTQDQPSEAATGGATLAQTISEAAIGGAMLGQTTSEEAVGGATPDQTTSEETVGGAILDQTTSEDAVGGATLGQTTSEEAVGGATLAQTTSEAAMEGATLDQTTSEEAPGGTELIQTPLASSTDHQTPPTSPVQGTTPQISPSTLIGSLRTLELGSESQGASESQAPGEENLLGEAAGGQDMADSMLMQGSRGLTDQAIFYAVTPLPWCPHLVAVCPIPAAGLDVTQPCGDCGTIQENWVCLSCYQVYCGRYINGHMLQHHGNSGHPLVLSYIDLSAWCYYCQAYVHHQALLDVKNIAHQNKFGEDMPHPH

DU145 cells = experiment: Anti-proliferative assay (MTT cell viability); type: cell-based, human; conditions: for effect on proliferation rate of DU145 cells: 50 µM, MTT, 24, 48, 72 h; for anti-proliferative activity at the lowest concentrations: DU145, late phases, lowest concentrations (tested 1, 5, 10, 50 µM)
Method: The results corroborate the inhibitory activity of 17, 23, 25 and 27 at concentrations lower than 10 µM. […] HDACs contribution to CRPC is known[20] and the possibility to arrest CRPC proliferation by acting on HDAC targets is expanding in the scientific literature[21]^,[22]. After administration of the selected compounds for 24 h at 10 µM concentration, the effect on the acetylation levels of histone H3 and α-tubulin (respectively, HDAC1 and HDAC6 targets) was investigated. […] Lastly, in the same cell line, the anti-proliferative effect was measured in dose and time dependent manner (Figure S4).
Figure S4. Cell viability assay (MTT) of the tested compounds in human prostate cancer cell lines (DU145). Cells were treated with 4 increasing concentrations (1, 5, 10, and 50 µM) of tested compounds, monitored at 24, 48, and 72 hours and tested with SAHA and Tubastatin A as reference compounds. Data are expressed as mean ± SEM. […]
1.5 Anti-proliferative assay
Cell viability was determined on DU145 cell line using Thiazolyl Blue Tetrazolium Bromide [3-(4,5-dimethylthiazol-2-yl)-2,5-diphenyltetrazolium bromide] (MTT; Sigma-Aldrich) assay after treatment with new compounds at indicated concentrations. A total of 2 × 10^4 cells/well were plated in a 96-well plate and treated, in duplicates, with new compounds at different concentrations for 24, 48, and 72 hours. Absorbance was read at a wavelength of 570 nm with a TECAN M-200 reader (Tecan, Männedorf, Switzerland).

| SMILES | IC50 (HDAC6) [µM] | effect on proliferation rate of DU145 cells (DU145 cells) | anti-proliferative activity at the lowest concentrations (DU145 cells) |
| --- | --- | --- | --- |
| Oc1cc(-c2ccc(NCc3ccccc3)cc2)on1 [Compound 23] | 0.7 | reduced the proliferation rate | exerted anti-proliferative activity |
| Oc1cc(-c2ccc3c(c2)OCO3)on1 [Compound 25] | 1.5 | reduced the proliferation rate | exerted anti-proliferative activity |
